Source: patent US7045298B2, “Method for identifying or screening agonist and antagonist to PPAR” (Tanabe Seiyaku Co., Ltd., priority 1997, dated 2006)

Experiments:
[1] = target: T1, ligand-dependent interaction between PPARγ and CBP (Homo sapiens, UniProt P37231); experiment: Yeast two-hybrid detection of ligand-dependent interaction between PPARγ and CBP (β-galactosidase reporter); format: cell-based; conditions: for β-galactosidase activity (lacZ gene expression): yeast SFY526 containing both plasmids pGBT9-PPARγ2 and pGAD424-CBP, substance added at 10^−6M (FIG. 2A/3A), cultivation 4 to 5 hours; for concentration dependence of the increase in β-galactosidase activity: yeast containing both plasmids, varying concentrations of substance (FIG. 2B/3B)
T1 construct: expressed in transfected cells; host or cells: yeast cell strain SFY526 (Clontech), transformed with pGBT9-PPARγ2 and pGAD424-CBP
T1 sequence (P37231 182-505): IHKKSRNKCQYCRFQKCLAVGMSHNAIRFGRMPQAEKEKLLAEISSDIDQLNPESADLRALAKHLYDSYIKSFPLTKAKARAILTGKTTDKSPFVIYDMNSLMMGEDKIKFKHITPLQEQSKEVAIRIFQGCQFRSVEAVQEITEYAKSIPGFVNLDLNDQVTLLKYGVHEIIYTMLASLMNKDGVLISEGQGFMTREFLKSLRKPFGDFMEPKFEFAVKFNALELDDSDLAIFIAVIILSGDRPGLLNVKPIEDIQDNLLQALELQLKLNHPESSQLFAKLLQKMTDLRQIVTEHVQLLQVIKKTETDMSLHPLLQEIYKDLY
T1 sequence (P45481 1-464 partner): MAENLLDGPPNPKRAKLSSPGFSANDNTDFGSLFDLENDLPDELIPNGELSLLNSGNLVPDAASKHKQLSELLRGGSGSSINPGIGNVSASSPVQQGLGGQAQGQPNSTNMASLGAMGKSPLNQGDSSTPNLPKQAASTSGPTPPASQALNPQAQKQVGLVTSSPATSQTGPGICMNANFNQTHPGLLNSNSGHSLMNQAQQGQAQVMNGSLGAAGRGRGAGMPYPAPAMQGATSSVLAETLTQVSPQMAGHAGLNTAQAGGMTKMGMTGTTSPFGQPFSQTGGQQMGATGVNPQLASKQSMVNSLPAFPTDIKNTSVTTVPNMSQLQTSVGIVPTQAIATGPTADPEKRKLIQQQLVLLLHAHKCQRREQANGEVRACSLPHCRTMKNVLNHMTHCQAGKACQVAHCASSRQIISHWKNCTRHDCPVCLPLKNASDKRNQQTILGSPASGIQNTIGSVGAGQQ
Source text: The 1574 base pair fragment containing PPARγ2 gene obtained in (1) above was cleaved at the XhoI recognition site designed at the terminus and the BamHI recognition site in the base sequence. The fragments obtained were inserted into the BamHI-SalI site of yeast expression vector pGBT9 (available from Clontech Co., vector for yeast two hybrid system) containing the gene of the DNA binding domain of transcription factor GAL4 (No. 1 to 147 amino acid residues of GAL4). As a result, plasmid pGBT9-PPARγ2 (FIG. 1A) for expressing a fused protein comprising the portion downstream of the No. 181 amino acid residue of human PPARγ2 (ligand binding domain) and the DNA binding domain of GAL4 was obtained. In FIG. 1A, GAL4 bd stands for a GAL4 DNA binding domain sequence, ^PADH1 stands for alcohol dehydrogenase gene promoter, ^TADH1 stands for an alcohol dehydrogenase gene terminator, Amp^r stands for an ampicillin resistant gene, ColE1 ori stands for a collicin E1 replication start point, and 2 μ ori stands for a 2 μ replication start point.
The 1411 base pair fragment containing CBP gene obtained in (1) above (N-terminal domain) was cleaved at the BamHI recognition site and BglII recognition site designed at the termini. The fragments obtained were inserted into the BamHI-BglII site of yeast expression vector pGAD424 (available from Clontech Co., vector for yeast two hybrid system) containing the gene of the transcriptional activation domain of GAL4 (No. 768 to 881 amino acid residues of GAL4). As a result, plasmid pGAD424-CBP (FIG. 1B) for expressing a fused protein comprising the portion of the No. 1 to 464 amino acid residues of mouse CBP (N-terminal domain) and the transcriptional activation domain of GAL4 was obtained. In FIG. 1B, GAL4 ad stands for GAL4 transcriptional activation domain sequence and others have the same meanings as in FIG. 1A.
Using yeast cell strain SFY526 (available from Clontech Co.), the fused protein expression plasmids pGBT9-PPARγ2 and pGAD424-CBP obtained in (2) and (3) above were introduced therein. The cell strain SFY526 (genotype was MATa, ura3-52, his3-200, ade2-101, lys2-801, trp1-901, leu2-3, 112, canr, gal4-542, gal80-538, URA3::GAL1-lacZ) had incorporated in the chromosome a fused gene of GAL1 and lacZ and is a cell strain having deletion mutation relative to GAL4 gene (Bartel et al., Bio Techniques, vol. 14, pp. 920–924, 1993). The transformation was performed by the lithium acetate method and incubated in a synthetic medium depleted of tryptophan and leucine which are selection markers for the respective plasmids to perform screening to obtain a transformant in which only one of the plasmids was introduced and a transformant in which the both plasmids were introduced.
The yeast transformant containing both of the plasmids pGBT9-PPARγ and pGAD424-CBP or the yeast transformant containing only one of the plasmids was cultivated in YPD medium (liquid medium). Upon cultivation, 15-deoxy-Δ^12,14-prostaglandin J2, which is a ligand of PPARγ2 in a living body, diluted with YPD medium was added (or not added). 15-deoxy-Δ^12,14-prostaglandin J2 (hereinafter abbreviated to as “15d-PGJ2”) used was commercially available (available from CAYMAN CHEMICALS, CO., U.S.A.). The cultivation was performed for 4 to 5 hours. After the cultivation, the yeast cells were recovered by centrifugation and β-galactosidase activity was measured. […]

KK-Ay mouse = conditions: Japanese Provisional Patent Publications No. 56675/1989 and No. 167225/1990; cited from earlier work

Row | SMILES | β-galactosidase activity (lacZ gene expression) [1] | concentration dependence of the increase in β-galactosidase activity [1] | identification as agonist for PPARγ ([1]; conclusion from ligand-dependent PPARγ-CBP interaction in yeast two-hybrid system) | hypoglycemic effect (KK-Ay mouse)
1 | CCCCC/C=C/C=C1/C(=O)C=C[C@@H]1C/C=C\CCCC(=O)O [15d-PGJ2, 15-deoxy-Δ^12,14-prostaglandin J2] | an increase in β-galactosidase activity | dependent on the concentration of 15d-PGJ2 | – | –
2 | O=C1NC(=O)C(Cc2ccc3oc(Cc4ccc5ccccc5c4)nc3c2)S1 (stereo not drawn) [T-174, 5-[[2-(2-naphthalenylmethyl)-5-benzoxazolyl]methyl]-2,4-thiazolidinedione] | an increase in β-galactosidase activity was observed only in the yeast containing both of the plasmids | dependent on the concentration of T-174 | identified as an agonist acting as a ligand to PPARγ | hypoglycemic effect
